These compounds were tested on platelets (assay: Platelet Production-Stimulating Activity in Mice). Conditions: 20 mg/kg i.p. once a day, day 1 to 5; blood on day 15; vs solvent control.
Assay type: in vivo, BALB/c mice
Excerpt: Platelet Production-Stimulating Activity in Mice
A test compound was intraperitoneally administered to four 7-week-old male BALB/c mice per group once a day for consecutive 5 days (day 1 to day 5). A control group (4 mice per group) received only the solvent (5% Tween 80/water). The blood was collected from the fundus oculi vein of each animal on the 15th day from the start of administration (day 15), and the number of the platelets was counted with a microcell counter (Model CC-180A, manufactured by Toa Iryo Denshi Co.). The rate of increase of the number of platelets in the test group (average) over the control (average) was calculated according to the following formula to evaluate the effect of the test compound.
A: the number of platelets in test group
B: the number of platelets in control group

Compound	Rate of increase (number of platelets, A/B×100) [%]
CN(C)CCCn1c2ccccc2c2c3c(c4c5ccccc5n(C)c4c21)C(=O)N(C)C3=O [Compound 25]	151

Same assay, conditions: 25 mg/kg i.p. once a day, day 1 to 5; blood on day 15; vs solvent control

Compound	Rate of increase (number of platelets, A/B×100) [%]
CCN(CC)CCCn1c2ccc(O)cc2c2c3c(c4c5cc(O)ccc5n(C)c4c21)C(=O)N(C)C3=O [Compound 108]	179

Same assay, conditions: 40 mg/kg i.p. once a day, day 1 to 5; blood on day 15; vs solvent control

Compound	Rate of increase (number of platelets, A/B×100) [%]
CCN(CC)CCCn1c2ccccc2c2c3c(c4c5ccccc5n(C)c4c21)C(=O)N(C)C3=O [Compound 27]	187
CCCN(C)CCCn1c2ccccc2c2c3c(c4c5ccccc5n(C)c4c21)C(=O)N(C)C3=O [Compound 31]	161
CCN(CC)CCCn1c2ccc(Br)cc2c2c3c(c4c5cc(Br)ccc5n(C)c4c21)C(=O)N(C)C3=O [Compound 110]	184

What follows are compounds tested on megakaryocyte colony formation (bone marrow cells) (assay: Megakaryocyte colony formation-stimulating activity). Conditions: 1 nM; control (IL-3 alone) defined as 100; IL-3 100 U/ml; 7 days.
Assay type: cell-based, BALB/c mouse
Experimental: Megakaryocyte colony formation-stimulating activity
An eight-weeks-old BALB/c mouse was killed. Its femurs and cervical vertebrae were taken out, and both end sections thereof were cut off. Bone marrow cells were collected from the pieces cut off from the femurs and cervical vertebrae using a syringe containing IMDM (430-2200EA prepared by Gibco Co.), and then blown into a test tube. The test tube was allowed to stand for 5 minutes, and the supernatant was collected with a pipet. To a reaction mixture comprising the bone marrow cells (50,000 cells), bovine serum albumin (2%: A4508 made by Sigma Co.), transferrin (600 μg/ml: 652202 made by Boehringer Mannheim Co.), IL-3 (100 U/ml), cholesterol (16 μg/ml: 036-0641 made by Wako Co.) and agar (0.6%: 0142-02 made by Difco Laboratories) were separately added the test compounds at various concentrations, and 1 ml each of the mixtures was put into a 35-mm dish (Lux Co.), followed by incubation under the conditions of 37° C., 5% CO2 and a humidity of 95% or more for 7 days. Separately, IL-3 alone was added to the bone marrow cells to prepare a control. After the incubation was completed, the agar was dried over a filter paper (1001-055 made by Whatman Co.) and then fixed with 2.5% glutaraldehyde, followed by acetylcholinesterase staining (ACHE staining).
The ACHE staining was carried out by the method described below.
ACHE staining: To each sample was added a solution comprising 0.67 mg/ml acetylthiocholine iodide, 2.94 mg/ml sodium citrate, 7.5 mg/ml copper (II) sulfate and 1.65 mg/ml potassium ferricyanide, and the mixture was allowed to stand at room temperature in the dark for 4-6 hours.
A group of 4 or more megakaryocytes which were stained reddish brown was regarded as a colony, and the number of colonies per dish was calculated using a microscope. The results are shown in Table 2 as relative values to the control.

Compound	Rel. Value (megakaryocyte colonies per dish relative to the control)
CN1Cc2c(c3c4ccccc4n(C)c3c3c2c2ccccc2n3C)C1=O [Compound 9]	128
CN1Cc2c(c3c4ccccc4n(Cc4ccc(N(C)C)cc4)c3c3c2c2ccccc2n3Cc2ccc(N(C)C)cc2)C1=O [Compound 20]	140
CNCCCn1c2ccccc2c2c3c(c4c5ccccc5n(C)c4c21)C(=O)N(C)C3=O [Compound 26]	117
CN1Cc2c(c3c4ccccc4[nH]c3c3[nH]c4ccccc4c23)C1=O [Compound 80]	111
C=CCn1c2ccccc2c2c3c(c4c5ccccc5n(CC=C)c4c21)C(=O)N(C)C3=O [Compound 82]	101
CN1C(=O)c2c(c3c4ccccc4n(CC(O)CO)c3c3[nH]c4ccccc4c23)C1=O (stereo not drawn) [Compound 83]	111
CCOC(=O)Cn1c2ccccc2c2c3c(c4c5ccccc5n(CC(=O)OCC)c4c21)C(=O)NC3 [Compound 85]	125
O=C1NCc2c1c1c3ccccc3n(CCCO)c1c1c2c2ccccc2n1CCCO [Compound 86]	131
O=C1NCc2c1c1c3ccccc3[nH]c1c1c2c2ccccc2n1CCCN1CCOCC1 [Compound 88]	120
O=C1c2c(c3c4ccccc4[nH]c3c3[nH]c4ccccc4c23)CN1C1CCCCO1 (stereo not drawn) [Compound 89]	110
Cn1c2ccccc2c2c3c(c4c5ccccc5n(C)c4c21)C(=O)NC3 [Compound 91]	111
CN1C(=O)C(c2c[nH]c3ccccc23)=C(c2c[nH]c3ccccc23)C1=O [Compound 93]	109
CCN(CC)CCCn1c2ccc(Br)cc2c2c3c(c4c5cc(Br)ccc5n(C)c4c21)C(=O)N(C)C3=O [Compound 110]	137

Same assay, conditions: 10 nM; control (IL-3 alone) defined as 100; IL-3 100 U/ml; 7 days

Compound	Rel. Value (megakaryocyte colonies per dish relative to the control)
C=CCn1c2ccccc2c2c3c(c4c5ccccc5[nH]c4c21)C(=O)N(C)C3=O [Compound 81]	113
CN1C(=O)c2c(c3c4ccccc4n(CC(O)CO)c3c3c2c2ccccc2n3CC(O)CO)C1=O (stereo not drawn) [Compound 84]	132
O=C1NCc2c1c1c3ccccc3n(Cc3ccccc3)c1c1c2c2ccccc2n1Cc1ccccc1 [Compound 90]	106
